This note sets out measurements from PubChem BioAssay (NCI).

Assay in all cases: growth of human tumour cells (NCI), 48 h
The subject of test [1] is HCC-2998 colon.
Test [2] relates to KM12 colon.
Test [3] relates to M14 melanoma.
Test [4] has as its system MALME-3M melanoma.
The test system of test [5] is NCI-H23 lung.
The test system of test [6] is OVCAR-4 ovarian.
Test [7] concerns SF-295 CNS.
For test [8], the system named is SNB-75 CNS.
The subject of test [9] is UACC-257 melanoma.

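Briefly, cells in 96-well plates were exposed to five compound concentrations for 48 h, and endpoints were estimated by linear interpolation. GI50 = concentration required for 50% inhibition of growth. TGI marks complete inhibition of growth.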

In the case of `CCCC(OCC)(OCC)OCC`, the TGI in test [1], in [2], in [3], in [4], in [5] and in [6] was more than 100 µM throughout. In addition, the TGI in test [7], in [8] and in test [9] was more than 100 µM in each case.
Turning to `CC(=O)[CH-]C(=O)c1ccccc1.CC(=O)[CH-]C(=O)c1ccccc1.O=C([O-])C[O-].O=C([O-])C[O-].[Ti+4]`, the GI50 in test [1] is 40.3 µM; in test [2], 21.7 µM; in [3], 34.7 µM; in test [4], 34.3 µM; in [6], 41 µM; in test [7], 50.7 µM. Moreover, the GI50 was 18.6 µM in [8] and 43.1 µM in test [9]. Further, the TGI was more than 100 µM in test [1]; 69.2 µM in [2]; more than 100 µM in test [3]; more than 100 µM in test [4]; more than 100 µM in test [6]; more than 100 µM in [7]. In addition, the TGI is 56.7 µM in test [8] and more than 100 µM in [9].
Consider `COc1ccc2[nH]c3c4c(c5cc(C(C)(C)C)ccc5c3c2c1)C(=O)N(c1ccccc1)C4=O`, for which the TGI in test [1] was 47.4 µM; in test [2], more than 100 µM; in [3], more than 100 µM; in [4] it was more than 100 µM; in test [5], more than 100 µM; in test [6] it was more than 100 µM. For the same compound, the TGI in [7], in test [8] and in test [9] was more than 100 µM in each case.
Turning to `CCCCCCCC[N+](C)(C)Cc1ccc(C[N+](C)(C)CCCCCCCC)cc1`, the TGI in [1] is more than 100 µM; in test [2], more than 100 µM; in test [3], more than 100 µM; in test [4], more than 100 µM; in test [5] it was 47 µM; in [6], more than 100 µM. In addition, the TGI in test [7], in test [8] and in test [9] was more than 100 µM throughout.
`CCOC(=O)C1Cc2c(ccc(OC)c2OC)C(=O)C1N` (stereo not drawn): the TGI in test [1], in test [2], in [3], in [4], in test [5] and in test [6] was more than 100 µM each time. The TGI in test [7], in [8] and in test [9] was more than 100 µM in each case.
`O=C1c2ccccc2C(=O)N1/N=C\c1ccc(Br)cc1`: the GI50 in test [1], in test [2], in test [3], in [4], in test [5] and in test [6] was more than 100 µM in each case. The GI50 in [7], in [8] and in test [9] was more than 100 µM throughout. Also, the TGI in test [1], in test [2], in test [3], in [4], in test [5] and in [6] was more than 100 µM in each case. Further, the TGI in test [7], in test [8] and in test [9] was more than 100 µM in each case.
For the compound `COc1cc(C(=O)C/C(CCC(=O)Nc2ccccc2[N+](=O)[O-])=N\NC(=O)C(N)=O)ccc1O`, the TGI in [2], in test [3], in test [5], in test [6], in test [7] and in [9] was more than 100 µM each time.
On to `OCCN1CCN(CCO)Cc2ccccc2OCCOc2ccccc2C1`, for which the TGI in test [2], in [3], in test [4], in test [5], in test [6] and in [8] was more than 100 µM throughout. This compound also had a TGI in test [9] of more than 100 µM.
On to `CCOC(=O)/C(=C/c1ccc(OC)c(OC)c1)C(=O)c1ccccc1`, for which the TGI in [1] was 32.5 µM; in test [2], 31.5 µM; in test [3] it was 28.9 µM; in test [4] it was more than 100 µM; in test [5], 35.6 µM; in test [6], 60.3 µM. Besides, the TGI was determined as 46.9 µM in [7], 28.5 µM in test [8] and 33.2 µM in [9].
Consider `CCCCCCCCCOC(=S)NC`, for which the TGI in test [1] is 35.3 µM; in test [2], 57 µM; in [3], 45.8 µM; in test [4] it was 43.8 µM; in test [5] it was 34.6 µM; in test [6], 42.2 µM. For the same compound, the TGI was found to be 67.5 µM in test [7] and 73.7 µM in test [8].
As for `COc1cc2[nH]c(C(=O)c3cc(OC)c(OC)c(OC)c3)c(N)c2cc1C#CCO`, the GI50 is 0.775 µM in [1]; 0.334 µM in test [2]; 0.143 µM in test [4]; 0.508 µM in test [5]; 0.528 µM in [6]. For the same compound, the TGI in test [1], in [2], in test [4], in [5] and in [6] was more than 100 µM throughout.
Consider `C=C1C(=O)O[C@@H]2[C@H]1CC[C@H](C)[C@]1(O)CCC(=O)[C@@]21C`, for which the TGI in test [1], in test [2], in test [4], in test [5], in test [6] and in test [7] was more than 10 µM throughout. This compound also registered a TGI in test [8] of more than 10 µM.
As to `Cc1nc(NC(=S)NC(=O)c2ccc(Cl)c(Cl)c2)sc1C(=O)/C=C/c1ccccc1[N+](=O)[O-]`, the TGI in test [1] is more than 100 µM; in test [2], 39.3 µM; in test [3] it was 51.5 µM; in test [4] it was 41.9 µM; in test [5], 44.9 µM; in [6], 88.2 µM. Besides, the TGI in test [7] came out at 58.9 µM; in [9] it was 89.1 µM.
For the compound `CC1=CC(=O)C(C)(C2=NC(C)(C)CO2)c2ccccc21` (stereo not drawn), the TGI in test [2], in test [3], in [4], in [5], in test [6] and in test [7] was more than 100 µM each time. Further, the TGI in test [8] and in test [9] was more than 100 µM in each case.
